{
  "source": "ChEMBL document CHEMBL1909588",
  "about": "“Synthesis and in vitro antitubercular evaluation of novel sansanmycin derivatives” (2011)",
  "data": [
    {"system": "Mycobacterium tuberculosis", "assay": "Antitubercular activity against rifampicin and isoniazid-resistant Mycobacterium tuberculosis isolate 2199 after 24 hrs by microplate alamar blue assay", "assay_type": "functional", "details": "isolate 2199, 24 h", "units": {"MIC": "µg/mL"}, "values": [
      {"smiles": "CSCCC(NC(=O)NC(Cc1c[nH]c2ccccc12)C(=O)O)C(=O)NC(C(=O)N/C=C1\\C[C@@H](O)[C@H](n2ccc(=O)[nH]c2=O)O1)C(C)N(C)C(=O)C(N)Cc1cccc(O)c1", "note": "(some centres undefined) [SANSANMYCIN A]", "MIC": 32},
      {"smiles": "NNC(=O)c1ccncc1", "note": "[ISONIAZID]", "MIC": 40},
      {"smiles": "CO[C@H]1/C=C/O[C@@]2(C)Oc3c(C)c(O)c4c(O)c(c(/C=N/N5CCN(C)CC5)c(O)c4c3C2=O)NC(=O)/C(C)=C\\C=C\\[C@H](C)[C@H](O)[C@@H](C)[C@@H](O)[C@@H](C)[C@H](OC(C)=O)[C@@H]1C", "note": "[RIFAMPIN]", "MIC": 20},
      {"smiles": "CSCCC(NC(=O)NC(Cc1c[nH]c2ccccc12)C(=O)O)C(=O)NC(C(=O)N/C=C1\\C[C@@H](O)[C@H](n2ccc(=O)[nH]c2=O)O1)C(C)N(C)C(=O)C(Cc1cccc(O)c1)NC(C)C", "note": "(some centres undefined)", "MIC": 8}
    ]}
  ]
}
